# From patent publication US20120196933A1, “MEXILETINE PRODRUGS” (priority 2010, published 2012)
# Values joined by “and” are separate entries in the source; they are usually repeats but may differ in a detail not shown here. Equal values may be shown once. Where a name gives a salt, the structure may show the parent alone. Read-outs that look alike come from different tables or passages of the source. Marks after values point to notes of the source that are not given here.
# Columns and labels:
# [1] = In vitro stability of mexiletine prodrugs under conditions prevailing in the gut; format: physicochemical; details: HPLC; for Simulated gastric fluid (pH 1.1): % remaining after 2 h/37° C.: simulated gastric fluid pH 1.1, 2 h; for Simulated intestinal fluid (pH 6.8): % remaining after 2 h/37° C.: simulated intestinal fluid pH 6.8, 2 h
# Procedure: To investigate if the prodrugs of the present invention are stable in conditions mimicking the gut, various mexiletine amino acid prodrugs were incubated at 37° C. in simulated gastric and simulated intestinal juice (USP defined composition) for 2 hours. The remaining concentrations of the prodrug were then assayed by HPLC.
# [2] = as above; format: physicochemical; details: 0.1M phosphate buffer pH 7.4, 2 h
# [3] = Systemic availability of mexiletine in the dog from mexiletine prodrugs (oral gavage); format: in vivo; details: for AUC of mexiletine / Cmax of mexiletine / T50% Cmax / F(rel): 1 mg/kg mexiletine free base; for AUC of mexiletine / Cmax of mexiletine / T50% Cmax: plasma mexiletine; for F(rel): relative to mexiletine
# Procedure: Test substances (i.e., mexiletine, and various mexiletine amino acid prodrugs) were administered by oral gavage to groups of two or some cases five dogs. The characteristics of the test animals are set out in Table 6.
# Blood samples were taken at various times after administration and submitted to analysis for parent drug using a validated LC-MS-MS assay. Pharmacokinetic parameters derived from the plasma bioanalytical data were determined using Win Nonlin.
# [4] = Systemic availability of mexiletine in the cynomolgus monkey from mexiletine prodrugs (oral gavage); format: in vivo; details: 1 mg/kg mexiletine free base; for AUC of mexiletine / Cmax of mexiletine / T50% Cmax: plasma mexiletine; for F(rel): relative to mexiletine
# Procedure: Test substances (i.e., mexiletine, and various mexiletine amino acid prodrugs) were administered by oral gavage to groups of two and, in one case, five male cynomolgus monkeys. Blood samples were taken at various times after administration and submitted to analysis for the parent drug using a validated LC-MS-MS assay. Pharmacokinetic parameters derived from the plasma bioanalytical data were determined using Win Nonlin.
# [5] = oral, cited from earlier work
# [6] = tested on: rabbit stomach smooth muscle; assay: Electrical field stimulated contractions of isolated rabbit stomach smooth muscle; format: cell-based; details: rabbit stomach antrum strips, EFS 14 Hz, read-out: ED50 for attenuation of EFS induced contractions
# [7] = tested on: patients with myotonic disorders; details: 1200 mg daily tocamide or 600 mg daily mexiletine, three divided doses; cited from earlier work
# ferret = assay: Emetic effects following oral administration to the ferret; format: in vivo; details: oral 20 mg/kg mexiletine HCl or molar equivalent, individual animals
# Excerpt: Male ferrets (n=7) were allowed free access to pelleted diet until late afternoon on the day prior to the day of each test. The food was then removed and the ferrets were starved overnight. Food was not returned until after completion of the emetic observation.
# [8] = listed as Mexiletine lysine amide
smiles,measurement,setting,value
"Cc1cccc(C)c1OCC(C)NC(=O)[C@@H](N)CCCN (stereo partly drawn) [Mexiletine ornithine amide, Mexiletine-(S)-Ornithine Amide Di-hydrochloride]",Simulated gastric fluid (pH 1.1): % remaining after 2 h/37° C.,[1],99.7%
same,Simulated intestinal fluid (pH 6.8): % remaining after 2 h/37° C.,[1],99.8%
same,"pH 7.4, 37° C. 0.1M phosphate buffer: % remaining after 2 h/37° C.",[2],99.5%
Cc1cccc(C)c1OCC(C)NC(=O)C(N)CN (stereo not drawn),AUC of mexiletine,[3],8371 ng·h/mL
same,Cmax of mexiletine,[3],103 ng/mL
same,T50% Cmax,[3],10.0 h
same,F(rel),[3],77.9%
same,AUC of mexiletine,[4],801 ng·h/mL
same,Cmax of mexiletine,[4],82.7 ng/mL
same,T50% Cmax,[4],7.88 h
same,F(rel),[4],116%
Cc1cccc(C)c1OCC(C)NC(=O)C(N)CO (stereo not drawn) [Mexiletine serine amide],T50% Cmax,[3],6.00 h
same,T50% Cmax,[4],5.05 h
Cc1cccc(C)c1OCC(C)NC(=O)C(N)CCCNC(N)=O (stereo not drawn) [Mexiletine citrulline amide],T50% Cmax,[3],3.0** h
"Cc1cccc(C)c1OCC(C)NC(=O)[C@@H](N)C[S+](C)[O-].O=C(O)C(F)(F)F (stereo partly drawn) [Mexiletine [(R)-S-methyl-cysteine, Mexiletine [(R)—S-Methyl-Cysteine Sulfoxide] Amide Trifluoroacetate]",AUC of mexiletine,[3],144 ng·h/mL
same,Cmax of mexiletine,[3],59.9 ng/mL
same,T50% Cmax,[3],1.63 h
same,F(rel),[3],13.4%
same,AUC of mexiletine,[4],432 ng·h/mL
same,Cmax of mexiletine,[4],62.2 ng/mL
same,T50% Cmax,[4],4.80 h
same,F(rel),"[4]; listed as Mexiletine methyl-cysteine sulfoxide amide, 1 mg/kg",62.6%
Cc1cccc(C)c1OCC(C)NC(=O)CCN (stereo not drawn) [Mexiletine β alanine amide],Cmax of mexiletine,[3],BLQ
same,Cmax of mexiletine,[4],BLQ
Cc1cccc(C)c1OCC(C)NC(=O)[C@@H](N)CCC(N)=O.Cl (stereo partly drawn) [Mexiletine glutamine amide],Bioavailability with respect to mexiletine,[3],near complete
same,AUC of mexiletine,[3],790 ng·h/mL
same,Cmax of mexiletine,[3],117 ng/mL
same,T50% Cmax,[3],5.60 h
same,F(rel),[3],73.5%
same,AUC of mexiletine,[4],649 ng·h/mL
same,Cmax of mexiletine,[4],105 ng/mL
same,T50% Cmax,[4],4.0 h
same,F(rel),[4],94.1%
NCC1(CC(=O)O)CCCCC1 [gabapentin],Bioavailability,[5]; 900 mg/day gabapentin,approximately 60%
same,Bioavailability,[5]; 1200 mg/day gabapentin,~47%
same,Bioavailability,[5]; 2400 mg/day gabapentin,~34%
same,Bioavailability,[5]; 3600 mg/day gabapentin,~33%
same,Bioavailability,[5]; 4800 mg/day gabapentin,~27%
Cc1cccc(C)c1OCC(C)NC(=O)C(N)C1CC1 (stereo not drawn) [Mexiletine cyclopropyl glycine amide],Cmax of mexiletine,[3],0.703 ng/mL
same,Cmax of mexiletine,[4],0.895 ng/mL
"Cc1cccc(C)c1OCC(C)NC(=O)[C@@H](N)C(C)C.Cl (stereo partly drawn) [Mexiletine valine amide, Mexiletine-(S)-Valine Amide Hydrochloride]",Simulated gastric fluid (pH 1.1): % remaining after 2 h/37° C.,[1],98.7%
same,Simulated intestinal fluid (pH 6.8): % remaining after 2 h/37° C.,[1],98.3%
same,T50% Cmax,[3],5.0** h
same,"pH 7.4, 37° C. 0.1M phosphate buffer: % remaining after 2 h/37° C.",[2],98.8%
Cc1cccc(C)c1OCC(C)NC(=O)C(N)CCCNC(=N)N (stereo not drawn) [Mexiletine arginine amide],T50% Cmax,[3],6.5** h
same,T50% Cmax,[4],4.48 h
"Cc1cccc(C)c1OCC(C)NC(=O)[C@@H](N)CCCCN=C(N)N.Cl.Cl (stereo partly drawn) [Mexiletine homo arginine amide, Mexiletine-(S)-Homoarginine Amide Dihydrochloride]",AUC of mexiletine,[3],563 ng·h/mL
same,Cmax of mexiletine,[3],86.9 ng/mL
same,T50% Cmax,[3],5.39 h
same,F(rel),[3],52.4%
same,AUC of mexiletine,[4],424 ng·h/mL
same,Cmax of mexiletine,[4],56.8 ng/mL
same,T50% Cmax,[4],5.13 h
same,F(rel),[4],61.5%
"Cc1cccc(C)c1OCC(C)NC(=O)[C@@H](N)CC[S+](C)C (stereo partly drawn) [Mexiletine S-methyl-methionine chloride, Mexiletine-[(S)—S-Methyl-Methionine Chloride] Amide Hydrochloride]",Simulated gastric fluid (pH 1.1): % remaining after 2 h/37° C.,[1],99.2%
same,Simulated intestinal fluid (pH 6.8): % remaining after 2 h/37° C.,[1],99.4%
same,T50% Cmax,[3],5.92 h
same,T50% Cmax,[4],5.99 h
same,"pH 7.4, 37° C. 0.1M phosphate buffer: % remaining after 2 h/37° C.",[2],99.8%
Cc1cccc(C)c1OCC(C)NC(=O)c1ccncc1 (stereo not drawn) [Mexiletine isonicotinic acid amide],Bioavailability with respect to mexiletine,[3],negligible
"Cc1cccc(C)c1OCC(C)NC(=O)C(N)CCCNC(=N)N(C)C.Cl.Cl (mixture of isomers) [Mexiletine-(S)—N,N-Dimethylarginine Amide Dihydrochloride]",Simulated gastric fluid (pH 1.1): % remaining after 2 h/37° C.,[1],99.7%
same,Simulated intestinal fluid (pH 6.8): % remaining after 2 h/37° C.,[1],96.8%
same,"pH 7.4, 37° C. 0.1M phosphate buffer: % remaining after 2 h/37° C.",[2],99.6%
"Cc1cccc(C)c1OCC(C)NC(=O)[C@@H](N)CC(=O)O (stereo partly drawn) [Mexiletine-(S)-aspartic acid amide, Mexiletine-(S)-Aspartic Acid Amide Hydrochloride]",Simulated gastric fluid (pH 1.1): % remaining after 2 h/37° C.,[1],99.2%
same,Simulated intestinal fluid (pH 6.8): % remaining after 2 h/37° C.,[1],99.9%
same,"pH 7.4, 37° C. 0.1M phosphate buffer: % remaining after 2 h/37° C.",[2],99.9%
"Cc1cccc(C)c1OCC(C)NC(=O)[C@@H](N)C(C)(C)O (stereo partly drawn) [Mexiletine [^α-hydroxy-(5)-valine] amide, Mexiletine [β-hydroxy-(S)-valine] amide]",Cmax of mexiletine,[3],1.68 ng/mL
same,Cmax of mexiletine,[4],BLQ
Cc1cccc(C)c1OCC(C)NC(=O)c1cccnc1 (stereo not drawn) [Mexiletine nicotinic acid amide],Bioavailability with respect to mexiletine,[3],negligible
same,Cmax of mexiletine,[3],BLQ
"Cc1cccc(C)c1OCC(C)NC(=O)[C@@H](NC(=O)[C@@H](N)C(C)C)C(C)C.Cl (stereo partly drawn) [Mexiletine valine-valine amide, Mexiletine-valine-valine Amide Hydrochloride]",T50% Cmax,[3],4.25** h
"Cc1cccc(C)c1OCC(C)NC(=O)[C@@H](N)CCCCN.O=C(O)C(F)(F)F.O=C(O)C(F)(F)F (mixture of isomers) [Mexiletine (S)-lysine amide, (Rac)-Mexiletine-(S)-Lysine Ditrifluoroacetate]",Simulated gastric fluid (pH 1.1): % remaining after 2 h/37° C.,[1]; [8],99.8% and 100%
same,Simulated intestinal fluid (pH 6.8): % remaining after 2 h/37° C.,[1]; [8],80.8% and 100%
same,AUC of mexiletine,[3],301** ng · h/mL
same,Cmax of mexiletine,[3],54.4** ng/mL
same,T50% Cmax,[3],5.0** h
same,F(rel),[3],28.0** %
same,EC50,[6],21.8 µM
same,"pH 7.4, 37° C. 0.1M phosphate buffer: % remaining after 2 h/37° C.",[2],100%
"CNC(=N)NCCC[C@H](N)C(=O)NC(C)COc1c(C)cccc1C (stereo partly drawn) [Mexiletine (S)-N-methylarginine amide, Mexiletine-(S)—N-Methylarginine Amide Dihydrochloride]",Simulated gastric fluid (pH 1.1): % remaining after 2 h/37° C.,[1],99.8%
same,Simulated intestinal fluid (pH 6.8): % remaining after 2 h/37° C.,[1],93.6%
same,"pH 7.4, 37° C. 0.1M phosphate buffer: % remaining after 2 h/37° C.",[2],99.9%
Cc1cccc(C)c1NC(=O)C(C)N (stereo not drawn) [tocamide],Increase in the speed of stair step movement,[7],2.7 fold
same,Reduction in the time taken for eye opening,[7],7 fold
same,Reduction of hand opening time,[7],4.2 fold
"Cc1cccc(C)c1OCC(C)NC(=O)[C@@H](N)Cc1ccccc1.Cl (stereo partly drawn) [Mexiletine phenylalanine amide, Mexiletine-(S)-Phenylalanine Amide Hydrochloride]",T50% Cmax,[3],3.5** h
"Cc1cccc(C)c1OCC(C)NC(=O)CN.O=C(O)C(F)(F)F (racemic) [Mexiletine glycine amide, Glycine-(rac)-mexiletine Trifluoroacetate]",Simulated gastric fluid (pH 1.1): % remaining after 2 h/37° C.,[1],99.8%
same,Simulated intestinal fluid (pH 6.8): % remaining after 2 h/37° C.,[1],99.8%
same,T50% Cmax,[3],5.5** h
same,T50% Cmax,[4],3.71** h
same,EC50,[6]; Oryctolagus cuniculus,9.16 µM
same,Total number of individual incidences of retching,ferret; 2 h observation,20 (2×) and 2 (2×) and 12 and 0 and 10
same,Total number of individual incidences of vomiting,ferret; 2 h observation,5 and 1 (2×) and 2 and 0 (2×) and 3
same,Time to onset of retching,ferret,15 min (2×) and 13 min (2×) and 11 min and >120 min and 10 min
same,Time to onset of vomiting,ferret,17 min and 13 min (2×) and 11 min and >120 min (2×) and 15 min
same,"pH 7.4, 37° C. 0.1M phosphate buffer: % remaining after 2 h/37° C.",[2],99.9%
"CC(=O)N[C@@H](CCCCN)C(=O)NC(C)COc1c(C)cccc1C.Cl (stereo partly drawn) [Mexiletine [(S)-N^α-acetyl-lysine] amide, Mexiletine [(S)—N^α-Acetyl-Lysine] Amide Hydrochloride]",AUC of mexiletine,[3],893 ng·h/mL
same,Cmax of mexiletine,[3],90.8 ng/mL
same,T50% Cmax,[3],8.08 h
same,F(rel),"[3]; listed as Mexiletine α acetyl lysine amide, Hydrochloride, 1 mg/kg",83.1%
same,AUC of mexiletine,[4],363 ng·h/mL
same,Cmax of mexiletine,[4],30.3 ng/mL
same,T50% Cmax,[4],8.98 h
same,F(rel),"[4]; Hydrochloride, 1 mg/kg",60%
same,F(rel),"[4]; listed as Mexiletine acetyl Lysine amide, Hydrochloride, 1 mg/kg",52.6%
